Results on seven compounds are retold here after paper PMC10721899, “The bactericidal and antibiofilm effects of a lysine-substituted hybrid peptide, CM-10K14K, on biofilm-forming Staphylococcus epidermidis” (Scientific Reports, 2023).

Structures can show the parent of a compound that is named as a salt. Ends that are not written are not given here.

The subject of series [1] is S. epidermidis ATCC 35984. Description: Biostability: growth inhibition in the presence of proteinase K. Type of series: cell-based, Staphylococcus epidermidis. The note with it: 0.01 mg/mL proteinase K. Here is the method:
Proteolysis of peptide by proteinase K was determined using the growth inhibition assay described by Jia et al.[28] with some modifications. […] After 6 and 24 h of incubation, the growth inhibitory effect was determined by measuring the absorbance at 620 nm using a Multiskan SkyHigh microplate reader. The percentage of relative survival rate was calculated as follows: Relativesurvivalrate%=AbsTreated/AbsUntreated×100 where AbsTreated was absorbance value of S. epidermidis cells after incubation with peptide in the presence of proteinase K, AbsUntreated was that of S. epidermidis cells incubated with ultrapure water in the presence of proteinase K.

Series [2] deals with human red blood cells (hRBCs). Description: Hemolytic activity. The format is cell-based. To be noted: 1 h at 37 °C, relative to Triton-X control. Here is the method:
The quantity of hemoglobin released by treatment was used as a measure of a peptide’s hemolytic activity against human red blood cells (hRBCs)[23]. Venous blood was collected from a healthy volunteer in plastic blood collection tubes with lithium heparin (BD Vacutainer™, USA) and centrifuged at 2000×g for 5 min to separate the plasma and buffy coat. The hRBCs obtained were washed at least three times and diluted to 4% (vol/vol) in phosphate-buffered saline (PBS; Caisson Laboratories, USA). The same volume of the hRBC suspension (50 µL) was incubated with twofold, serially diluted concentrations (0.98–250 μg/mL) of peptide dissolved in PBS for 1 h at 37 °C. The hRBCs incubated in 0.1% Triton X-100 and PBS were used as positive (100% hemolysis) and negative (0% hemolysis) controls, respectively. The release of hemoglobin into the supernatants was monitored by measurement of absorbance at 405 nm using a Multiskan SkyHigh microplate reader (Thermo Scientific™, Singapore). The percentage of hemolysis was calculated as previously described.

The subject of series [3] is S. epidermidis ATCC 35984 (biofilm-producer). Description: microbe, parasite or virus in culture. The format is cell-based, Staphylococcus epidermidis. To be noted: for MIC, minimum inhibitory concentration: MHB; for MBC, minimum bactericidal concentration: colony count from non-turbid MIC wells. As to the method:
(§1) The S. epidermidis ATCC 35984 (biofilm-producer), Staphylococcus aureus ATCC 25923, Enterococcus faecalis ATCC 29219, Acinetobacter baumannii ATCC 19606, Klebsiella pneumoniae ATCC 27736 and Pseudomonas aeruginosa ATCC 27853 were grown overnight on trypticase soy agar (TSA; BD Bacto™), then subcultured in TSB and incubated at 37 °C for 16–18 h before each experiment. Stock bacterial cultures were kept frozen at − 80 °C in trypticase soy broth (TSB; BD Bacto™, USA) containing 20% glycerol.
(§2) The antimicrobial activity of peptides against S. epidermidis and five strains of both gram-positive and gram-negative bacteria frequently involved in catheter-related infections including S. aureus, E. faecalis, A. baumannii, K. pneumoniae, and P. aeruginosa was compared to that of vancomycin (Vancomycin hydrochloride, BioChemica, UK) using a modified version of the National Committee for Clinical Laboratory Standards (NCCLS) broth microdilution method. Two-fold serially diluted (0.98–250 µg/mL) aliquots of the peptides were prepared in type 1 water and added to sterile 96-well polypropylene microplates (Nunclon Delta-Treated; Thermo Scientific™, Denmark) in a volume of 50 µL, followed by the addition of 50 µL of bacterial suspensions (2–7 × 10^5 CFU/mL) in Mueller Hinton Broth (MHB; BD Difco™, USA). Uninoculated MHB and bacterial cultures without peptides were used as negative and positive controls, respectively. After culturing in an incubator shaker for 24 h at 37 °C, the lowest concentration at which the peptide inhibited bacterial growth as observed by visual inspection was taken as the minimal inhibitory concentration (MIC)[22]. Fifty microliter aliquots from each non-turbid well identified in the MIC experiment were plated on TSA for determination of minimal bactericidal concentration (MBC) by colony count assay. […] All experiments were performed in triplicate.

Series [4] has as its system Enterococcus faecalis ATCC 29219. Type of series: cell-based. As to the method:
as §1, §2

Series [5] concerns Staphylococcus aureus ATCC 25923. The format is cell-based. Here is the method: as §1, §2
Series [6] concerns Klebsiella pneumoniae ATCC 27736. The format is cell-based. As to the method: as §1, §2
The test system of series [7] is Pseudomonas aeruginosa ATCC 27853. Type of series: cell-based. As to the method: as §1, §2
Series [8] deals with Acinetobacter baumannii ATCC 19606. The format is cell-based. As to the method: as §1, §2
Series [9] can be described thus: Cytotoxicity, MTT assay. Type of series: cell-based, mouse. To be noted: mouse, L929 mouse fibroblast cells (NCTC clone 929), L929, 24 h, read-out: cell viability. As to the method:
(§3) The cytotoxicity of the candidate peptide on L929 mouse fibroblast cell lines (NCTC clone 929) were evaluated using the 3-(4,5-dimethylthiazol-2-yl)-2,5-diphenyltetrazolium bromide (MTT) assay following the published protocol. L929 cells (3–5 × 10^4) in RPMI 1640 medium, supplemented with 10% (vol/vol) heat-inactivated fetal bovine serum, 2 mM L-glutamine, 0.2% (wt/vol) sodium bicarbonate, 100 U/mL penicillin and […] streptomycin were placed into each well of 96-well plates and incubated in 5% CO2 at 37 °C overnight. After removal of media, the two-fold serially diluted peptide was added to achieve final concentrations of 0.98–250 µg/mL. Plates were then incubated at 37 °C under 5% CO2 for 24 h. The RPMI 1640 medium with and without L929 seeded cells were used as positive and negative controls, respectively. After treatment, MTT (Sigma-Aldrich, USA) was added to a final concentration of 0.5 mg/mL and suspensions incubated for 4 h at 37 °C under 5% CO2. Supernatants from each well were then discarded, and 150 µl of dimethyl sulfoxide (DMSO; Fisher BioReagents™, UK) was added and gently mixed to dissolve the crystallized formazan. Absorbance was measured at 570 nm using a Multiskan SkyHigh microplate reader. Cell viability (%) was estimated according to the following formula: Cellviability%=AbsTreated-AbsBlank/AbsUntreated-AbsBlank×100
Background: Tetrazolium dyes change colour on reduction, which living cells bring about.

For series [10], the system named is L929 mouse fibroblast cells. Description: Cytotoxicity, MTT assay. The format is cell-based. The note with it: MTT, 24 h. Here is the method:
as §3

The test system of series [11] is S. epidermidis ATCC 35984. Description: Biofilm inhibition assay, crystal violet staining. Type of series: cell-based, Staphylococcus epidermidis. Here is the method:
The biofilm biomass was assessed using crystal violet staining to determine the ability of peptides to inhibit bacterial formation of biofilm ^1. Overnight S. epidermidis cultures were adjusted to an OD620 of 0.1 in TSB. An equal volume (50 µL) of bacterial suspension (~10^8 CFU/mL) was incubated with 2-fold serially diluted peptides (0.98-250 μg/mL) at 37°C for 24 h in 96-well plates. Supernatants were discarded after incubation, and wells were gently rinsed at least twice with 0.85% NaCl to remove planktonic cells. Adherent biofilms were fixed for 30 minutes with 95% ethanol, then the fixative solution was removed. The fixed biofilms were dried thoroughly and stained with addition of 150 µL of 0.1% crystal violet (CV) to each well containing biofilm, along with its respective control media. After 15 min, CV solutions were removed and wells were gently rinsed three times with 400 μL of 0.85% NaCl without disturbing the biofilm. The plates were left to dry for 30 min before adding 200 μL of 95% ethanol to each well to solubilize the bound CV with vigorous pipetting. The biofilm mass was evaluated by observing OD at 570 nm using a Multiskan SkyHigh microplate reader ^2. Results were expressed as the percentage of biofilm mass compared to that of control.

Take “H-KWKLFKKIGAVLKVL-NH2 [C(1–7)M(2–9), KWKLFKKIGAVLKVL-NH2, reference compound]”: in series [1] (24-h incubation, CM-10K14K at 31.25 and 62.5 µg/mL), the “antibacterial activity in the presence of proteinase K” value was “lost its ability to kill bacteria”. Besides, in [1] (6 h of incubation), the “concentration inhibiting bacterial growth in the presence of proteinase K” value was “at least its MIC”. Also, the “HC50, concentration of peptide that causes 50% hemolysis” value in series [2] stood at 88.89 ± 4.62 µg/mL. Moreover, the MIC, minimum inhibitory concentration in [3] (24 h at 37 °C) came to 7.81 µg/mL. Also, the MBC, minimum bactericidal concentration in series [3] was determined as 7.81 µg/mL.

As to “VWKLFKKIGAVLKKL-NH2 [CM-1V14K, VWKLFKKIGAVLKKL-NH2]”, in series [2], the “HC50, concentration of peptide that causes 50% hemolysis” value worked out at 131.70 ± 9.23 µg/mL. For the same compound, in series [3] (24 h at 37 °C), the “MIC, minimum inhibitory concentration” value was determined as 7.81 µg/mL. Moreover, in [3], the “MBC, minimum bactericidal concentration” value is reported as 15.63 µg/mL.

Turning to “KWKLFKKIGKVLKVL-NH2 [CM-10K, KWKLFKKIGKVLKVL-NH2]”, the “HC50, concentration of peptide that causes 50% hemolysis” value in series [2] worked out at 85.78 ± 9.01 µg/mL. Besides, the “MIC, minimum inhibitory concentration” value in series [3] (24 h at 37 °C) was 3.91 µg/mL. Also, in series [3], the “MBC, minimum bactericidal concentration” value was 7.81 µg/mL.

“VWKLFKKIGKVLKKL-NH2 [CM-1V10K14K, VWKLFKKIGKVLKKL-NH2]”: in [2], the “HC50, concentration of peptide that causes 50% hemolysis” value was found to be 118.90 ± 8.19 µg/mL. Further, the “MIC, minimum inhibitory concentration” value in series [3] (24 h at 37 °C) worked out at 3.91 µg/mL. The “MBC, minimum bactericidal concentration” value in series [3] is on record as 15.63 µg/mL.

For the compound “KWKLFKKIGKVLKKL-NH2 [CM-10K14K, KWKLFKKIGKVLKKL-NH2]”, the “HC50, concentration of peptide that causes 50% hemolysis” value in series [2] amounted to 561.90 ± 88.19 µg/mL. Also, the “MIC, minimum inhibitory concentration” value in [3] (24 h at 37 °C) amounted to 3.91 µg/mL. Besides, the “MBC, minimum bactericidal concentration” value in [3] is on record as 7.81 µg/mL. Besides, the MBC in [4] came to 31.25 µg/mL; in series [5], 7.81 µg/mL; in series [6] it was 31.25 µg/mL; in series [7], 62.5 µg/mL; in series [8], 15.63 µg/mL. Moreover, the MIC in [4] was 31.25 µg/mL; in [5], 7.81 µg/mL; in [6], 15.63 µg/mL; in series [7] it was 15.63 µg/mL; in [8], 7.81 µg/mL. Moreover, the viability (commonly a read-out of living cells in per cent, often relative to untreated cells) at 24 h in series [9] (at the MBC) worked out at 92.9 ± 1.82%. Moreover, the viability at 24 h, 3.91 μg/mL in series [9] (at the MIC) amounted to 100%. In addition, the “IC50 on L929 cells” value in [10] was found to be 56.53 ± 1.84 µg/mL.

Regarding “KWKLFKKIGAVLKVLA-NH2 [CM-A, KWKLFKKIGAVLKVLA-NH2]”, the “HC50, concentration of peptide that causes 50% hemolysis” value in [2] is given as 42.58 ± 1.98 µg/mL. The “MIC, minimum inhibitory concentration” value in [3] (24 h at 37 °C) was 7.81 µg/mL. Besides, the “MBC, minimum bactericidal concentration” value in series [3] stood at 15.63 µg/mL.

`CN[C@H](CC(C)C)C(=O)N[C@H]1C(=O)N[C@@H](CC(N)=O)C(=O)N[C@H]2C(=O)N[C@H]3C(=O)N[C@H](C(=O)N[C@H](C(=O)O)c4cc(O)cc(O)c4-c4cc3ccc4O)[C@H](O)c3ccc(c(Cl)c3)Oc3cc2cc(c3O[C@@H]2O[C@H](CO)[C@@H](O)[C@H](O)[C@H]2O[C@H]2C[C@](C)(N)[C@H](O)[C@H](C)O2)Oc2ccc(cc2Cl)[C@H]1O` [Vancomycin, Vancomycin hydrochloride, reference compound]: the MIC in [3] (Staphylococcus epidermidis, ATCC35984, MHB, 24 h at 37 °C, read-out: MIC, minimum inhibitory concentration) turned out to be 3.91 µg/mL. For the same compound, the MBC in [3] (Staphylococcus epidermidis, ATCC35984, colony count from non-turbid MIC wells, read-out: MBC, minimum bactericidal concentration) was 7.81 µg/mL. Also, in [11] (at its MIC and MBC, 24 h), the “effect on biofilm formation” value was “slightly induced biofilm formation”. In addition, the “reduction of the biomass of biofilms” value in series [11] (treatment with > 15.63 µg/mL for 24 h) is “more than 90%”.
